# Test results as given in patent US20210187014A1 (The Regents of the University of Colorado, a body corporate, priority 2018, published 2021).
# Legend:
# C. elegans [1] = assay: Iron level in live worms by calcein-AM staining (and pftn-2::GFP reporter); format: in vivo
# Method: The present inventors employed the commonly used fluorescent cell-permeable dye, calcein AM, of which emission is quenched by iron binding, and applied it to live worms as previously described to estimate the overall iron level in the host.
# Live imaging of iron in worms was done as previously described (James et al., 2015). Briefly, worms were collected at different culture conditions, then co-cultured in M9 with 0.05 ug/ML calcein-AM (Invitrogen) for 1 h, then washed 3 times in 1 ml M9. Samples were then mounted for fluorescence microscopy.
# For calcein-AM staining, the original images taken with GFP channel were used to measure the intensity. The value of staining intensity was determined by subtracting the background intensity from the calcein-AM stained intestine.
# C. elegans [2] = assay: Siderophore toxicity test: worm growth and mitochondrial morphology (mtGFP); format: in vivo; conditions: in vivo
# Source text: FIG. 8. Bacterial enterobactin promotes C. elegans development. […] (8E) The entA- and entF-mutant E. coli strains colonized the host gut as efficiently as the parental wild-type strain. (FIG. 8F) Cartoon diagram of feeding condition, microscope images and bar graph showing that neither pyoverdine nor ferrichrome caused obvious growth defects in worms fed heat-killed food plus wild-type, live E. coli. (FIG. 8G) Fluorescence microscopy of worms containing mtGFP under the same feeding condition as in (FIG. 8F). […] “n” =number of worms scored. Data are represented as mean±SEM. ***P<0.0001.
# whole worm lysates = assay: Affinity chromatography with immobilized Ent and mass spectrometry to identify Ent-binding proteins; parameters: species or system C. elegans; conditions: two independent experiments
# Method: CTL-2 is a homolog of catalases that are known to bind iron. ATP-1 is the a-subunit of the mitochondrial ATP synthase that is not known for a role in iron biology (Junge and Nelson, 2015).
# Isolation of Enterobactin-binding proteins by biotin-IP and LC-MS. Total proteins were extracted from mixed stage worms and then pre-cleaned three times by adding 100 ul Dynabeads® M-280 Streptavidin. Equal volumes of these total protein extracts were then separated to two tubes. Biotin-Ent (5 ug) was added into one tube for IP and Biotin alone (5 ug) was added to another tube as the control, both were incubated overnight at 4° C. After incubating with Dynabeads® M-280 Streptavidin for 2 hours, the beads were washed at least 3 times by 1mL PBS. PBS was then removed from the beads and 200 uL 0.1 M ammonium bicarbonate (ABC)/0.001% deoxycholic acid (DCA) was added. The samples were reduced using 5 mM (final) TCEP at 60° C. for 30 min and alkylated using 15 mM iodoacetamide at room temperature for 20 min. 0.5 ug of trypsin was added to each sample and incubated overnight. The samples were then acidified using 7 uL of formic acid. DCA was removed from the samples by phasetransfer using ethyl acetate. The samples were desalted using a Pierce C18 spin column, and dried using a speed vac. […]
# ATP-1 [3] = molecular target: T1, ATP-1 (Caenorhabditis elegans, UniProt Q9XXK1); assay: Biotin-Ent binding to ATP-1 (in vivo pulldown and in vitro binding assay); parameters: species or system C. elegans; conditions: excess non-biotin labeled Ent
# T1 construct: His; made in house; host or cells: E. coli (given only for the three ATP-1 segments)
# T1 sequence (Q9XXK1 whole entry): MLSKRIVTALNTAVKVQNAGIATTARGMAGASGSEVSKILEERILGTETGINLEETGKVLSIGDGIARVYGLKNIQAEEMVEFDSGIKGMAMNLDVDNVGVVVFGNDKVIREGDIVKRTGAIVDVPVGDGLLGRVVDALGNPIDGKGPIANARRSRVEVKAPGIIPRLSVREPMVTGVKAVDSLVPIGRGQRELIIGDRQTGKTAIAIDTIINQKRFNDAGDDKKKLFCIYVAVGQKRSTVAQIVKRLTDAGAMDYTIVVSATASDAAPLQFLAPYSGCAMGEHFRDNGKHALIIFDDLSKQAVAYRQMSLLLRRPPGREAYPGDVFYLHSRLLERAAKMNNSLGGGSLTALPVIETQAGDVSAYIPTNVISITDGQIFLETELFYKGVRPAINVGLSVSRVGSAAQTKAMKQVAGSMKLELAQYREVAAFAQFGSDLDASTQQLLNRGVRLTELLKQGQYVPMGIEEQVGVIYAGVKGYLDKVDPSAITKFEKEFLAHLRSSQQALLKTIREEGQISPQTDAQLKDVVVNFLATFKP
# Method: First, in an in vivo assay, worms were fed bacteria +/− Biotin-Ent and total protein extracts were isolated, followed by streptavidin-bead purification and SDS-PAGE. […] Just as the iron-free Biotin-Ent, iron-bound Biotin-Ent also bound the ATP-1 protein (FIG. 10B, C).
# In vivo binding assay: Worms were allowed to grow with Ent-biotin (5 ug/ml) dietary supplementation, followed by streptavidin-bead IP. Western blot was performed to detect ATP-1, using an antibody against the mammalian ATP synthase a-subunit (Thermo Fisher 43-9800).
# (§1) In vitro binding assay. (a) Ent-biotin pull-down of total proteins: Ent-biotin and streptavidin beads were used to pull down interacting proteins from worm total protein extracts (same method as that in initial screen for Ent-binding proteins). Western blots were performed to detect ATP-1 (Thermo Fisher 43-9800). […] The assay was then quenched with a standard 5×SDS-PAGE_loading buffer (reducing). Proteins were separated by SDS-PAGE and transferred to_nitrocellulose membranes. The membranes were blocked for 1 h with 5% BSA in Trisbuffered saline (TBS) with 0.1% Tween 20 (TBST) at room temperature, followed by incubation for 1 h with horseradish peroxidase streptavidin (Cell Signaling_Technology,3999S) in TBST. […] After IP, the amount of 55Fe was determined by liquid scintillation.
# ATP-1 [4] = molecular target: T1, ATP-1; assay: Iron-binding assay: 55FeCl3 +/- siderophore in worm lysates, ATP-1 immunoprecipitation; parameters: species or system C. elegans
# Method: The present inventors added radiolabeled iron (55FeCl3) to worm lysates and then immunoprecipitated ATP-1.
# as §1, with “TBST. After four washes with changes every 15 min in TBST, the_biotinylated proteins were visualized by enhanced chemiluminescence (GE Healthcare,_RPN2232).” for “TBST.”
# succinate dehydrogenase = assay: Succinate dehydrogenase enzymatic activity in worms +/- Ent; format: in vivo, C. elegans; conditions: worms fed Ent-deficient food
# Method: Enzymatic activity. Succinate Dehydrogenase (MAK197; Sigma) and aconitase (MAK051; Sigma) enzymatic activity were measured using the kits according to the manufacturer's protocol. […] After 48 hours culturing, worms were lysed in ice-cold conditions using the lysis buffer provided in the kit, supplemented with […]. Equal amounts of protein were used for the enzymatic activity assay.
# HEK293T cells = assay: CAS staining of siderophore level in HEK293T cells; format: cell-based, human; conditions: Ent supplemented to the culture medium
# [5] = test system: anemic mouse model (dietary anemia); assay: Anemic mouse model (dietary anemia), Ent by oral gavage; format: in vivo; conditions: female mice on iron-deficient diet
# Source text: The inventors fed 3-week old female mice an iron-deficient diet (IDD) (or control diet) for 6 weeks to induce anemia (confirmed by hemoglobin measurement). […] As generally shown in FIGS. 20A-B, feeding IDD caused a drastic reduction of both hemoglobin and iron levels. […] A commercial kit (BioAssay system) was used to obtain hemoglobin level. Under normal conditions, ˜70% of the iron absorbed from the intestine is used to generate hemoglobin, and only a small percent may be stored in the liver or other somatic tissues if iron is in excess. Under anemic conditions, a great percentage of iron that has entered mitochondria (then bound to heme) may be funneled to erythropoiesis. Therefore, it was not unexpected to see little impact of Ent supplementation on liver iron level (iron storage).
# [6] = test system: anemic mouse model (dietary anemia); assay: Anemic mouse model (dietary anemia), Ent in drinking water; format: in vivo; conditions: male mice on iron-deficient diet, two weeks
# Method: The inventors fed 3-week old male mice an iron-deficient diet (IDD) (or control diet) for 5 weeks to induce anemia. They were then fed IDD +/− Ent added to the drinking water for two more weeks. Fresh dilutions of Ent in water were provided once per week. As generally shown in FIG. 21, mice continuously fed the iron-adequate control diet (CD) were included as the control. Hemoglobin level was measured by a Hemavet Blood Analyzer. Mean value±SD is shown.
# germ-free (GF) mice = assay: Growth of germ-free mice colonized with entF- E. coli, Ent in drinking water; format: in vivo; conditions: GF female mice colonized with entF- E. coli, drinking water pH 5.5
# Method: As generally shown in FIG. 23, (A) Five-week old female germ-free (GF) mice were colonized with a single non-pathogenic E. coli (K12) strain, wild type or entF-(Ent-deficient E. coli). Mouse growth (weight gain) was measured for the following 4 weeks. […] Iron level was measured.
smiles,measurement,setting,value
"O=C(N[C@H]1COC(=O)[C@@H](NC(=O)c2cccc(O)c2O)COC(=O)[C@@H](NC(=O)c2cccc(O)c2O)COC1=O)c1cccc(O)c1O [Ent, enterobactin]",iron level gain with Ent supplementation,"C. elegans [1]; atp-1 RNAi, entF- mutant bacteria",eliminated the iron level gain
same,iron level in worms (calcein AM and pftn-2::GFP),C. elegans [1]; growth-arrested worms fed heat-killed E. coli only,such a defect was suppressed
same,iron level and growth rate defects,"C. elegans [1]; iron-deficient condition, worms treated with CaEDTA",both defects were suppressed
same,iron level in worms (calcein AM fluorescence),C. elegans [1]; worms fed entA- or entF- mutant bacteria with heat-killed E. coli,recovered
same,amount of FeCl3 (175 ug/ul) with equivalent effect on calcein-AM fluorescence decrease,C. elegans [1]; worms treated with CaEDTA,10 µL
same,iron level increase attributed to Ent-mediated iron uptake,C. elegans [1]; worms treated with CaEDTA,≥ 10 fold
same,mitochondrial morphology (mtGFP),C. elegans [2],did not disrupt mitochondrial morphology
same,candidate Ent-binding proteins captured,whole worm lysates,CTL-2 and ATP-1
same,competition of Biotin-Ent binding to ATP-1-His,ATP-1 [3],outcompeted
same,increase in 55Fe associated with ATP-1-IP,ATP-1 [4]; whole worm lysates,> 10 fold
same,binding of ATP-1 to 55Fe,ATP-1 [4]; worm lysates,dramatically increased
same,activity of succinate dehydrogenase,succinate dehydrogenase,significantly increased
same,"entry into cells (CAS staining, siderophore level)",HEK293T cells,can enter
same,iron level in the spleen,[5]; oral gavage,increased in the spleen
same,hemoglobin level,[5]; oral gavage once every two days for two weeks,partially but significantly recovered
same,hemoglobin level,[6],significantly improved
same,growth (weight gain),germ-free (GF) mice,overcomes growth delay
